Experimental data published in patent publication US9187471B2, “Pyrido [4,3-b] indole and pyrido [3,4-b] indole derivatives and methods of use” (Medivation Technologies, Inc., priority 2010, dated 2015).

Legend:
[1] = molecular target: T1, human recombinant serotonin (5-Hydroxytryptamine) 5-HT7 receptor (Homo sapiens, UniProt P34969); experiment: Serotonin 5-HT7 radioligand binding ([3H]LSD); details: compound at 0.1 μM; read-out: Inhibition of ligand binding, Serotonin 5-HT7 (percent inhibition of specific binding)
T1 construct: expressed in transfected cells; host or cells: CHO
Method: Lysergic acid diethylamide (LSD) for 120 min. at 25° C. […] Receptor proteins were filtered and washed, the filters were then counted to determine [^3H]LSD specifically bound.

[2] = molecular target: T2, human recombinant histamine H1 receptor (Homo sapiens, UniProt P35367); experiment: Histamine H1 radioligand binding ([3H]Pyrilamine); details: read-out: Histamine H1 Binding (1 μM), percent inhibition of specific binding; compound at 1 μM; 1.2 nM [3H]Pyrilamine
T2 construct: expressed in transfected cells; host or cells: CHO-K1
Procedure, shortened: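 Human recombinant H1 receptor expressed in CHO-K1 cells, in 50 mM Tris-HCl pH 7.4 with 2 mM MgCl2, 100 mM NaCl, 250 mM sucrose. Non-specific binding defined with 1 μM pyrilamine; bound [3H]pyrilamine counted after filtration and washing. Values are percent inhibition of specific binding.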

[3] = molecular target: T3, human recombinant dopamine D2L receptor (Homo sapiens, UniProt P14416); experiment: Dopamine D2L radioligand binding ([3H]Spiperone); details: 0.16 nM [3H]Spiperone; for inhibition at 1 µM: read-out: Dopamine D2L (1 μM), percent inhibition of specific binding, compound at 1 μM; for inhibition at 0.1 µM: read-out: Dopamine D2L (0.1 μM), percent inhibition of specific binding, compound at 0.1 μM
T3 construct: expressed in transfected cells; host or cells: CHO
Method: Non-specific binding was estimated in the presence of 10 μM Haloperidol. Receptor proteins were filtered and washed, the filters were then counted to determine [^3H]Spiperone specifically bound.

[4] = molecular target: T4, human recombinant serotonin (5-Hydroxytryptamine) 5-HT6 receptor (Homo sapiens, UniProt P50406); experiment: Serotonin 5-HT6 radioligand binding ([3H]LSD); details: compound at 0.1 μM; read-out: Inhibition of ligand binding, Serotonin 5-HT6 (percent inhibition of specific binding)
T4 construct: expressed in transfected cells; host or cells: HeLa
Source text: Receptor proteins were filtered and washed, the filters were then counted to determine [3H]LSD specifically bound.

T1 sequence (P34969 whole entry): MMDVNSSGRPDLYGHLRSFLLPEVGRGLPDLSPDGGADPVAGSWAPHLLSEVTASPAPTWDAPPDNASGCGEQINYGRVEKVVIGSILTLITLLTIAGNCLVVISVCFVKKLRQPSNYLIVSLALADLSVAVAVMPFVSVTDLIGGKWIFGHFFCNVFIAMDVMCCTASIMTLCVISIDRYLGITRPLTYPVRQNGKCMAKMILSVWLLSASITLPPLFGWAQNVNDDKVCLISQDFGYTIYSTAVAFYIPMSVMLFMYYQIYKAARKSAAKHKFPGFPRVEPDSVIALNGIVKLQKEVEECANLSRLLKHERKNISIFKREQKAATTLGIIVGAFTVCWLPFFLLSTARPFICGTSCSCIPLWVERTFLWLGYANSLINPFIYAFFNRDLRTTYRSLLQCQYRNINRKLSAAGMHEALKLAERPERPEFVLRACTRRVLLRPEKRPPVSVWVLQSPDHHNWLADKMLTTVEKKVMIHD
T3 sequence (P14416 whole entry): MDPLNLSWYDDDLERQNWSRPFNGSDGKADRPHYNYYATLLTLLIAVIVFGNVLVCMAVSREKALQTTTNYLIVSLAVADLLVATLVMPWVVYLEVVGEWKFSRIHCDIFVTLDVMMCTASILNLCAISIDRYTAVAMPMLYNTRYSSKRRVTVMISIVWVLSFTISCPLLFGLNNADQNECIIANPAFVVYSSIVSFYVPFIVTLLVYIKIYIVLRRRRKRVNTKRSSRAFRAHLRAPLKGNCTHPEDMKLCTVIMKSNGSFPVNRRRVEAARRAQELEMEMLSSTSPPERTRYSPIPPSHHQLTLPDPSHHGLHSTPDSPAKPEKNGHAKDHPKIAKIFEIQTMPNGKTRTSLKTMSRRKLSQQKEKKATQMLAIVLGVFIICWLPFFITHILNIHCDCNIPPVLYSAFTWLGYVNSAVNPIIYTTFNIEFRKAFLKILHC
T2 sequence (P35367 whole entry): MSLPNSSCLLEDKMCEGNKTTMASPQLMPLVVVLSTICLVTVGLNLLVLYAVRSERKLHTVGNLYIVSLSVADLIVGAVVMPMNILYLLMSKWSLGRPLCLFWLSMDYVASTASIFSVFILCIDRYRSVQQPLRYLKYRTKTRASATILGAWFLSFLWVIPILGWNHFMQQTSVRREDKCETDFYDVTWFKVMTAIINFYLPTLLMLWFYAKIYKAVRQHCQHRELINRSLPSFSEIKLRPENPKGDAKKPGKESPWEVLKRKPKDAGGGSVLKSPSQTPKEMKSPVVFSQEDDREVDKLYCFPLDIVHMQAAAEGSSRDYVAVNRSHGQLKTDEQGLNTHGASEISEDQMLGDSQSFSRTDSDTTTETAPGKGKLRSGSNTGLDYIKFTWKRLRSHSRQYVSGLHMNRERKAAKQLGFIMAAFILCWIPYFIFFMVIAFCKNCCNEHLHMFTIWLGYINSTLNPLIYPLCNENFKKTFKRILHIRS
T4 sequence (P50406 whole entry): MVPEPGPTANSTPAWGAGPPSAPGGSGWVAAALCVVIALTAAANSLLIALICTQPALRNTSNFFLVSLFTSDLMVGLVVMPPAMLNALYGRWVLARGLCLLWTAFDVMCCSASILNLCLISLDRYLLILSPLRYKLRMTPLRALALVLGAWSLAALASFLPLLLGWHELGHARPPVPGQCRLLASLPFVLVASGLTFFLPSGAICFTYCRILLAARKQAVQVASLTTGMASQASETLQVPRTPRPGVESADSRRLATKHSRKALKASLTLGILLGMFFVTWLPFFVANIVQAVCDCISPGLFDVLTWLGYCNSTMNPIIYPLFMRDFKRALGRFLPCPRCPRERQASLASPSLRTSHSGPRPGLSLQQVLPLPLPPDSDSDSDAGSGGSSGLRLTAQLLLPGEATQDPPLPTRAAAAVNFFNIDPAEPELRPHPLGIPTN

Cc1cc(C)c2c(c1)c1c(n2-c2cccc3ncccc23)CCN(C)C1 [Compound 47]
inhibition at 0.1 µM [1]: 36%
inhibition at 1 µM [2]: 42%
inhibition at 1 µM [3]: 19%
inhibition at 0.1 µM [4]: 18%

Cc1ccc2c(c1)c1c(n2-c2ccc(-c3sccc3C)cn2)CCN(C)C1 [Compound No. 148, 2,8-dimethyl-5-(5-(3-methylthiophen-2-yl)pyridin-2-yl)-2,3,4,5-tetrahydro-1H-pyrido[4,3-b]indole]
inhibition at 0.1 µM [1]: 35%
inhibition at 1 µM [2]: 5%
inhibition at 1 µM [3]: 17%
inhibition at 0.1 µM [4]: 5%

CNC(=O)c1ccc(-c2cccc(-n3c4c(c5cc(C)ccc53)CN(C)CC4)c2)cn1 [Compound No. 75, 5-(3-(2,8-dimethyl-3,4-dihydro-1H-pyrido[4,3-b]indol-5(2H)-yl)phenyl)-N-methylpicolinamide]
inhibition at 0.1 µM [1]: 21%
inhibition at 1 µM [2]: 19%
inhibition at 1 µM [3]: 18%
inhibition at 0.1 µM [4]: 4%

CNC(=O)c1cccc(-c2cscc2-n2c3c(c4cc(C)ccc42)CN(C)CC3)c1 [Compound No. 154]
inhibition at 0.1 µM [1]: 73%
inhibition at 1 µM [2]: 20%
inhibition at 0.1 µM [3]: 1%
inhibition at 0.1 µM [4]: 7%

Cc1ccc2c(c1)c1c(n2-c2cccc(-c3cn[nH]c3)c2)CCN(C)C1 [Compound No. 70, 5-(3-(1H-pyrazol-4-yl)phenyl)-2,8-dimethyl-2,3,4,5-tetrahydro-1H-pyrido[4,3-b]indole]
inhibition at 0.1 µM [1]: 50%
inhibition at 1 µM [2]: 8%
inhibition at 1 µM [3]: 15%
inhibition at 0.1 µM [4]: 0%

Cc1ccc2c(c1)c1c(n2-c2ccc(-c3cnc(N(C)C)nc3)cn2)CCN(C)C1 [Compound No. 138, 5-(6-(2,8-dimethyl-3,4-dihydro-1H-pyrido[4,3-b]indol-5(2H)-yl)pyridin-3-yl)-N,N-dimethylpyrimidin-2-amine]
inhibition at 0.1 µM [1]: 6%
inhibition at 1 µM [2]: 7%
inhibition at 1 µM [3]: -2%
inhibition at 0.1 µM [4]: -6%

Cc1ccc2c(c1)c1c(n2-c2cccc(-c3ccnn3C)c2)CCN(C)C1 [Compound No. 66, 2,8-dimethyl-5-(3-(1-methyl-1H-pyrazol-5-yl)phenyl)-2,3,4,5-tetrahydro-1H-pyrido[4,3-b]indole]
inhibition at 0.1 µM [1]: 32%
inhibition at 1 µM [2]: 43%
inhibition at 1 µM [3]: 24%
inhibition at 0.1 µM [4]: 30%

Cc1csc(-c2ccc(-n3c4c(c5cc(C)ccc53)CN(C)CC4)nc2)c1 [Compound No. 144, 2,8-dimethyl-5-(5-(4-methylthiophen-2-yl)pyridin-2-yl)-2,3,4,5-tetrahydro-1H-pyrido[4,3-b]indole]
inhibition at 0.1 µM [1]: 37%
inhibition at 1 µM [2]: 11%
inhibition at 1 µM [3]: 5%
inhibition at 0.1 µM [4]: 13%

Cc1ccc2c(c1)c1c(n2-c2ccc(-c3cccnc3)cn2)CCN(C)C1 [Compound No. 133, 5-(3,3′-bipyridin-6-yl)-2,8-dimethyl-2,3,4,5-tetrahydro-1H-pyrido[4,3-b]indole]
inhibition at 0.1 µM [1]: 21%
inhibition at 1 µM [2]: 6%
inhibition at 1 µM [3]: 11%
inhibition at 0.1 µM [4]: 10%

Cc1ccc2c(c1)c1c(n2-c2cscc2-c2cc3ccccc3s2)CCN(C)C1 [Compound No. 151]
inhibition at 0.1 µM [1]: 90%
inhibition at 1 µM [2]: 11%
inhibition at 0.1 µM [3]: 1%
inhibition at 0.1 µM [4]: 28%

Cc1ccc2c(c1)c1c(n2-c2cscc2-c2ccnn2C)CCN(C)C1 [Compound No. 150]
inhibition at 0.1 µM [1]: 88%
inhibition at 1 µM [2]: 22%
inhibition at 0.1 µM [3]: 5%
inhibition at 0.1 µM [4]: 14%

Cc1ccc2c(c1)c1c(n2-c2cccc(-c3ccc4[nH]cnc4c3)c2)CCN(C)C1 [Compound 54, 5-(3-(1H-benzo[d]imidazol-5-yl)phenyl)-2,8-dimethyl-2,3,4,5-tetrahydro-1H-pyrido[4,3-b]indole]
inhibition at 0.1 µM [1]: 26%
inhibition at 1 µM [2]: 40%
inhibition at 1 µM [3]: 22%
inhibition at 0.1 µM [4]: 25%

Cc1ccc2c(c1)c1c(n2-c2ccc(-c3ccc4c(ccn4C)c3)cn2)CCN(C)C1 [Compound No. 136, 2,8-dimethyl-5-(5-(1-methyl-1H-indol-5-yl)pyridin-2-yl)-2,3,4,5-tetrahydro-1H-pyrido[4,3-b]indole]
inhibition at 0.1 µM [1]: 26%
inhibition at 1 µM [2]: 5%
inhibition at 1 µM [3]: 15%
inhibition at 0.1 µM [4]: 10%

Cc1ccc2c(c1)c1c(n2-c2cccc(-c3ccc(S(N)(=O)=O)cc3)c2)CCN(C)C1 [Compound No. 158, 3′-(2,8-dimethyl-3,4-dihydro-1H-pyrido[4,3-b]indol-5(2H)-yl)biphenyl-4-sulfonamide]
inhibition at 0.1 µM [1]: 26%
inhibition at 1 µM [2]: 1%
inhibition at 0.1 µM [3]: 1%
inhibition at 0.1 µM [4]: 14%

Cc1ccc2c(c1)c1c(n2-c2cscc2-c2cncc3ccccc23)CCN(C)C1 [Compound 34]
inhibition at 0.1 µM [1]: 43%
inhibition at 1 µM [2]: 6%
inhibition at 1 µM [3]: 31%
inhibition at 0.1 µM [4]: 11%

Cc1ccc2c(c1)c1c(n2-c2cccc(-c3sccc3C)c2)CCN(C)C1 [Compound 43, 2,8-dimethyl-5-(3-(3-methylthiophen-2-yl)phenyl)-2,3,4,5-tetrahydro-1H-pyrido[4,3-b]indole]
inhibition at 0.1 µM [1]: 33%
inhibition at 1 µM [2]: 26%
inhibition at 1 µM [3]: 26%
inhibition at 0.1 µM [4]: 28%

Cc1ccc2c(c1)c1c(n2-c2cccc(-c3cc4ccccc4s3)c2)CCN(C)C1 [Compound 51, 5-(3-(benzo[b]thiophen-2-yl)phenyl)-2,8-dimethyl-2,3,4,5-tetrahydro-1H-pyrido[4,3-b]indole]
inhibition at 0.1 µM [1]: 13%
inhibition at 1 µM [2]: 36%
inhibition at 1 µM [3]: 3%
inhibition at 0.1 µM [4]: 15%

CNC(=O)c1cc(-n2c3c(c4cc(C)ccc42)CN(C)CC3)cs1 [Compound No. 78]
inhibition at 0.1 µM [1]: 22%
inhibition at 1 µM [2]: 13%
inhibition at 1 µM [3]: 1%
inhibition at 0.1 µM [4]: 17%

Cc1ccc2c(c1)c1c(n2-c2cccc(-c3c(C)noc3C)c2)CCN(C)C1 [Compound No. 65, 4-(3-(2,8-dimethyl-3,4-dihydro-1H-pyrido[4,3-b]indol-5(2H)-yl)phenyl)-3,5-dimethylisoxazole]
inhibition at 0.1 µM [1]: 46%
inhibition at 1 µM [2]: 31%
inhibition at 1 µM [3]: 29%
inhibition at 0.1 µM [4]: 38%

Cc1ccc2c(c1)c1c(n2-c2ccc(-c3cnn(C)c3)cn2)CCN(C)C1 [Compound No. 134, 2,8-dimethyl-5-(5-(1-methyl-1H-pyrazol-4-yl)pyridin-2-yl)-2,3,4,5-tetrahydro-1H-pyrido[4,3-b]indole]
inhibition at 0.1 µM [1]: 4%
inhibition at 1 µM [2]: 6%
inhibition at 1 µM [3]: 1%
inhibition at 0.1 µM [4]: -2%

Cc1ccc2c(c1)c1c(n2-c2cscc2C(=O)N(C)C)CCN(C)C1 [Compound No. 152]
inhibition at 0.1 µM [1]: 15%
inhibition at 1 µM [2]: 16%
inhibition at 0.1 µM [3]: 4%
inhibition at 0.1 µM [4]: 22%

Cc1ccc2c(c1)c1c(n2-c2ccc3ccncc3c2)CCN(C)C1 [Compound No. 74, 5-(isoquinolin-7-yl)-2,8-dimethyl-2,3,4,5-tetrahydro-1H-pyrido[4,3-b]indole]
inhibition at 0.1 µM [1]: 2%
inhibition at 1 µM [2]: 18%
inhibition at 1 µM [3]: 56%
inhibition at 0.1 µM [4]: 14%

Cc1ccc2c(c1)c1c(n2-c2ccc(-c3ccc(C)nc3)cn2)CCN(C)C1 [Compound No. 156, 2,8-dimethyl-5-(6′-methyl-3,3′-bipyridin-6-yl)-2,3,4,5-tetrahydro-1H-pyrido[4,3-b]indole]
inhibition at 0.1 µM [1]: 28%
inhibition at 1 µM [2]: 12%
inhibition at 0.1 µM [3]: -7%
inhibition at 0.1 µM [4]: -5%
